Data on ten compounds can be found in PMC6009905, “Kushenol A and 8-prenylkaempferol, tyrosinase inhibitors, derived from Sophora flavescens” (Journal of Enzyme Inhibition and Medicinal Chemistry, 2018).

Assay [1] can be described thus: ABTS radical assay. Particulars: triplicate; for IC50: log-dose inhibition curve, read-out: Scavenging activity of compounds on ABTS radical, SC50. As to the method: The ABTS radical cation assay was modified the method of Re et al.[15] Briefly, the mixture of 7.4 mM ABTS solution with 2.6 mM potassium persulfate incubated at room temperature in dark for 24 h. […] Fifty microliter of the inhibitor was reacted with 950 μL of the ABTS solution. Absorbance value was monitored during 10 min at 732 nm using a spectrophotometer. The free radical value (SC50) was calculated by the log-dose inhibition curve. Scavenging activity (%)=[1–(extract absorbance/control absorbance)]×100.

Assay [2] has as its target T1, tyrosinase (Agaricus bisporus, UniProt C7FF04). Description: Tyrosinase assay (conversion of L-tyrosine to L-DOPA, UV-Vis 475 nm). Format: biochemical. Details: purchased Sigma-Aldrich T3824. Particulars: L-tyrosine substrate, triplicate; for inhibition at 100 µM: 100 μM inhibitor, read-out: Inhibitory activity of compounds on tyrosinase, 100 μM (%); for IC50: read-out: Inhibitory activity of compounds on tyrosinase, IC50. As for the experimental part: (§1) Enzyme assay was performed according to the modified methods in the previous papers. For the calculation of inhibitory activity, 130 μL of tyrosinase (about 46 units/mL) solvated in 0.1 mM phosphate buffer (pH: 6.8) and 20 μL of 1–0.0078 mM concentrations of the inhibitors were mixed in a 96-well plate, and then 50 μL of 2 mM L-tyrosine in buffer was added in mixture. To test the enzyme kinetic study, 130 μL of tyrosinase and 20 μL of inhibitor were also mixed, and then 50 μL of 0.62–10 mM L-tyrosine was added in a 96-well plate.
Target sequence in this assay (C7FF04 1-392 limits assumed): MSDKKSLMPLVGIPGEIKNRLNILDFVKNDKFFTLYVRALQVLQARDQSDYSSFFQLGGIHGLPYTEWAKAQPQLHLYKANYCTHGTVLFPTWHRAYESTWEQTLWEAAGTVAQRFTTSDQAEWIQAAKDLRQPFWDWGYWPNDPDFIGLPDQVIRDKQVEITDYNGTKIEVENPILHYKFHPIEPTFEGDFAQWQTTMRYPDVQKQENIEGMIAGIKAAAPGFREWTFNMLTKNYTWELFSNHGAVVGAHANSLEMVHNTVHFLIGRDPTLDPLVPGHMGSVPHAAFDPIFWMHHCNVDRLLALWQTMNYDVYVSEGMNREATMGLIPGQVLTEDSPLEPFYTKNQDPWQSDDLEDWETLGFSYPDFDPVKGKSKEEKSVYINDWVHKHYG

Assay [3] has as its target T1, tyrosinase. Description: Tyrosinase enzyme kinetics (Lineweaver-Burk plots, secondary re-plot). The class given is biochemical. Particulars: 0.62-10 mM L-tyrosine. As for the experimental part:
as §1, with “plate. The mixture was recorded at UV-Vis 475 nm during 20 min. The inhibitory ratio was calculated according to the following equation: Inhibitory activity rate (%)=100–[(S20–S0/C20–C0]×100 where C20 and S20 are the intensity of control and inhibitor after 20 min, C0 and S0 are the intensity of control and inhibitor at 0 min.” for “plate.”
This study confirmed the inhibitory mechanism of compounds 1–4 towards tyrosinase using enzyme kinetics. Enzyme kinetics were performed based on academic methods that examine a variety of substrate concentrations. The results were represented by Lineweaver–Burk plots, which confirmed the inhibition to […]. […]
Target sequence in this assay (C7FF04 2-392): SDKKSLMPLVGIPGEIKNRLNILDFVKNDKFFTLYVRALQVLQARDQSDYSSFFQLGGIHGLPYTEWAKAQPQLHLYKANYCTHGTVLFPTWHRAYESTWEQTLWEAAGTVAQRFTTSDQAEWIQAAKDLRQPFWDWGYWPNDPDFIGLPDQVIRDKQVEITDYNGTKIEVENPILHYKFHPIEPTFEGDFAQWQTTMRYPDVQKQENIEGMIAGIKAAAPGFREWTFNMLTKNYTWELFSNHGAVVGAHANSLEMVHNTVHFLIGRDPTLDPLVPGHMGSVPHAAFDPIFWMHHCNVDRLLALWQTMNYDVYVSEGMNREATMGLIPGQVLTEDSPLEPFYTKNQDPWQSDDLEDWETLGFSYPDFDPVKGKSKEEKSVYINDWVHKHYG

Assay [4] concerns the target tyrosinase. Details: method as in PMID 12951485, PMID 18175961. Particulars: read-out: IC50 on tyrosinase (previous report); cited from earlier work.
Assay [5] has as its system HepG2 cells. Description: Measurement of intracellular ROS in H2O2-treated HepG2 cells. Particulars: 10 μM inhibitor 1 h, then 2 mM H2O2 30 min; negative control 100.0%, positive control 701.5%. Format: cell-based, Human. As for the experimental part:
Human hepatoma HepG2 cells were cultured in DMEM supplemented with 10% FBS, 100 units/mL of penicillin and 100 μg/mL of streptomycin. Cells were maintained incubation at 37 °C under a 5% CO2[16].
The concentration of intracellular ROS was measured using a carboxy-H2DCFDA probe, as previously described. HepG2 cells were seeded into six-well plates at a density of 1 × 10^5 cells/mL and incubated for 24 h. After treatment with 10 μM concentrations of inhibitors 1–5 for 1 h, H2O2 (2 mM) was added to plates for 30 min. Cells were then incubated with 10 μM carboxy-H2DCFDA for 20 min, then cells were washed and harvested. Cells were immediately examined using a flow cytometer (Cytomics FC500; Beckman, Miami, FL).
To examine their antioxidant activity in vitro, pure compounds 1–5 were added to HepG2 cells, followed by addition of 2 mM H2O2. As shown in Figure 5(A), the respective negative (H2O2: –; I: –) and positive (H2O2: +; I: –) controls generated reactive oxygen species (ROS) of 100.0% ± 9.1% and 701.5% ± 46.9%. […] The viability of HepG2 cells following treatment with all compounds 1–5 at 10 μM ranged from 100.1% ± 6.1% to 103.8% ± 5.1% (Figure S6). Compound 2 caused an […].

Structures are written as SMILES. Where “and” joins values, the source holds several entries; their conditions need not be identical. Identical values can stand only once.

As to `CC(C)=CCc1c(O)cc(O)c2c1O[C@H](c1ccc(O)cc1)CC2=O` [Compound 5, 8-prenylnaringenin], in assay [1], the “Scavenging activity of compounds on ABTS radical, 25 μM (%)” value (“Scavenging activity of compounds … (%)” for short) is 91.5 ± 0.1% and the IC50 worked out at 7 ± 0.2 µM. In addition, the inhibition at 100 µM in assay [2] was 27 ± 2.9%.
For `C=C(C)[C@H](CC=C(C)C)Cc1c(O)cc(O)c2c1O[C@H](c1ccccc1O)CC2=O` [Compound 1, kushenol A], the Binding mode entry in assay [3] was “non-competitive inhibitors”. In assay [1], the “Scavenging activity of compounds … (%)” value is on record as 93.7 ± 0.3% and the IC50 came out at 9.7 ± 0.1 µM. Also, in assay [2], the inhibition at 100 µM stood at 101 ± 3.3%; the IC50 is < 10 µM and 1.1 µM.
On to `C=C(C)C(CCC(C)(C)O)Cc1c(O)cc(OC)c(C(=O)/C=C/c2ccc(O)cc2O)c1O` (stereo not shown) [kuraridinol], for which the IC50 in assay [4] was 0.8 µM.
For `CC(C)=CCc1c(O)cc(O)c2c(=O)c(O)c(-c3ccc(O)cc3)oc12` [Compound 2, 8-prenylkaempferol], the Binding mode entry in assay [3] is listed as “competitive inhibitor”. Also, in assay [5], the ROS generation was 435.3% ± 43.0%. Also, in assay [1], the “Scavenging activity of compounds … (%)” value was found to be 93.2 ± 0.2% and the IC50 came out at 7.9 ± 0.3 µM. In addition, in assay [2], the inhibition at 100 µM came out at 90.4 ± 3%; the IC50 is < 10 µM and 2.4 µM.
For the compound `C=C(C)[C@H](CC=C(C)C)Cc1c(O)cc(O)c2c1O[C@H](c1ccc(O)cc1O)CC2=O` [sophoraflavanone G], in assay [4], the IC50 is 6.6 µM.
Regarding `C=C(C)C(CC=C(C)C)Cc1c(O)cc(O)c2c(=O)c(O)c(-c3ccc(O)cc3O)oc12` (stereo not shown) [Compound 3, kushenol C], the Binding mode entry in assay [3] is “non-competitive inhibitors”. Moreover, in assay [5], the ROS generation was 391.7% ± 56.3%. Also, in assay [1], the “Scavenging activity of compounds … (%)” value was determined as 94.1 ± 0.2% and the IC50 amounted to 4.9 ± 0.3 µM. In assay [2], the inhibition at 100 µM is 81.1 ± 0.1% and the IC50 stood at 24.1 ± 2.3 µM.
Consider `COc1ccc(-c2coc3cc(O)ccc3c2=O)cc1` [Compound 4, formononetin], for which the Binding mode result in assay [3] is “non-competitive inhibitors”. Besides, in assay [1], the “Scavenging activity of compounds … (%)” value is listed as 53.3 ± 2.4% and the IC50 worked out at 22.8 ± 1.1 µM. Also, in assay [2], the inhibition at 100 µM stood at 91.9 ± 2% and the IC50 came out at 19.9 ± 1.7 µM.
For `C=C(C)[C@H](CC=C(C)C)Cc1c(O)cc(OC)c(C(=O)/C=C/c2ccc(O)cc2O)c1O` [kuraridin], in assay [4], the IC50 is 0.6 µM.
For the compound `C=C(C)[C@H](CC=C(C)C)Cc1c(O)cc(OC)c2c1O[C@H](c1ccc(O)cc1O)CC2=O` [kurarinone], the IC50 in assay [4] was 6.2 µM.
Take `O=C1O[C@H]([C@@H](O)CO)C(O)=C1O` [Ascorbic acid, reference compound]: in assay [1], the “Scavenging activity of compounds … (%)” value worked out at 44.9 ± 0.9% and the IC50 worked out at 27.8 ± 0.5 µM.
